Source: ChEMBL document CHEMBL5375972, “Discovery of Novel 2,3-Dihydro-1H-indene-5-sulfonamide NLRP3 Inflammasome Inhibitors Targeting Colon as a Potential Therapy for Colitis” (J Med Chem, 2023)
Activity calls are given as the source filed them.

Tests used:
[1] = Cytotoxicity against mouse J774.A1 cells incubated for 24 hrs by resazurin reagent based assay; assay type: toxicity, cell-based
[2] = system: J774.A1; assay: Inhibition of NF-kappaB pathway in mouse J774.A1 cells assessed as inhibition of LPS-induced IL-6 secretion at 0.1 to 30 uM pretreated for 1hr followed by LPS addition for 6 hrs by ELISA; assay type: cell-based; settings: dose 0.1-30 µM, time 7.0 hrs
[3] = system: J774.A1; assay: Inhibition of NF-kappaB pathway in mouse J774.A1 cells assessed as inhibition of LPS-induced TNF-alpha secretion at 0.1 to 30 uM pretreated for 1hr followed by LPS addition for 6 hrs by ELISA; assay type: cell-based; settings: dose 0.1-30 µM, time 7.0 hrs
[4] = target: NACHT, LRR and PYD domains-containing protein 3 (Homo sapiens, UniProt Q96P20); assay: Inhibition of NLRP3 inflammasome in human U-937 cells assessed as downregulation of LPS/ATP-induced caspase-1 p20 expression at 3 to 30 uM primed with LPS for 4.5 hrs followed by compound addition for 2.5 hrs and stimulated with […] for 13 hrs by Western blotting analysis; assay type: cell-based; settings: dose 3-30 µM, time 15.5 hrs
[5] = system: J774.A1; assay: […] of pyroptosis in mouse J774.A1 cells assessed as decrease in LDH release at 0.1 to 30 uM stimulated with LPS for 4.5 hs followed by incubation with compound for 30 mins and ATP addition for 30 mins by microplate reader assay; assay type: functional, cell-based; settings: dose 0.1-30 µM, time 1.0 hrs
[6] = Half life in Sprague-Dawley rat at 1 mg/kg,iv measured after 24 hrs by HPLC-MS/MS analysis; assay type: ADME, organism-based; settings: in vivo
[7] = Cmax in Sprague-Dawley rat at 1 mg/kg,iv measured after 24 hrs by HPLC-MS/MS analysis; assay type: ADME, organism-based; parameters: dose 1 mg/kg, time 24 hrs, route iv; settings: in vivo
[8] = Stability of compound in human plasma measured for 48 hrs; assay type: ADME, cell-free
[9] = Drug distribution in Sprague-Dawley rat heart at 1 mg/kg,iv measured for 0.5 to 2 hrs by HPLC-MS/MS analysis; assay type: ADME, organism-based; settings: in vivo, time 0.5-2 hrs
[10] = Drug distribution in Sprague-Dawley rat spleen at 1 mg/kg,iv measured for 0.5 to 2 hrs by HPLC-MS/MS analysis; assay type: ADME, organism-based; settings: in vivo, time 0.5-2 hrs
[11] = Drug distribution in Sprague-Dawley rat lung at 1 mg/kg,iv measured for 0.5 to 2 hrs by HPLC-MS/MS analysis; assay type: ADME, organism-based; settings: in vivo, time 0.5-2 hrs
[12] = Drug distribution in Sprague-Dawley rat small intestine at 1 mg/kg,iv measured for 0.5 to 2 hrs by HPLC-MS/MS analysis; assay type: ADME, organism-based; settings: in vivo, time 0.5-2 hrs
[13] = Drug distribution in Sprague-Dawley rat brain at 1 mg/kg,iv measured for 0.5 to 2 hrs by HPLC-MS/MS analysis; assay type: ADME, organism-based; settings: in vivo, time 0.5-2 hrs
[14] = Drug distribution in Sprague-Dawley rat colon at 1 mg/kg,iv measured for 0.5 hrs by HPLC-MS/MS analysis; assay type: ADME, organism-based; settings: read-out: Ct
[15] = Drug distribution in Sprague-Dawley rat plasma at 1 mg/kg,iv measured for 0.5 to 2 hrs by HPLC-MS/MS analysis; assay type: ADME, organism-based; settings: in vivo, time 0.5-2 hrs
[16] = system: Mus musculus; assay: Anti-inflammatory activity in DSS-induced ulcerative colitis C57BL/6 mouse model assessed as increase in body weight at 10 mg/kg,ip administrated for 9 days; assay type: functional, organism-based; settings: time 9.0 day
[17] = system: Mus musculus; assay: Anti-inflammatory activity in DSS-induced ulcerative colitis C57BL/6 mouse model assessed as reduction in inflammatory cell infiltration in colon at 10 mg/kg,ip administrated for 9 days by Hematoxylin-eosin staining based microscopic analysis; assay type: functional, organism-based; settings: time 9.0 day
[18] = system: Mus musculus; assay: Anti-inflammatory activity in DSS-induced ulcerative colitis C57BL/6 mouse model assessed as reduction in mucosal damage in colon at 10 mg/kg,ip administrated for 9 days by Hematoxylin-eosin staining based microscopic analysis; assay type: functional, organism-based; settings: time 9.0 day
[19] = system: Mus musculus; assay: Anti-inflammatory activity in DSS-induced ulcerative colitis C57BL/6 mouse model assessed as decrease in IL-1beta expression in colon at 10 mg/kg,ip administrated for 9 days by immunohistochemistry analysis; assay type: functional, organism-based; settings: time 9.0 day
[20] = system: Mus musculus; assay: Anti-inflammatory activity in DSS-induced ulcerative colitis C57BL/6 mouse model assessed as decrease in ASC expression in colon at 10 mg/kg,ip administrated for 9 days by immunohistochemistry analysis; assay type: functional, organism-based; settings: time 9.0 day
[21] = system: Mus musculus; assay: Anti-inflammatory activity in DSS-induced ulcerative colitis C57BL/6 mouse model assessed as decrease in IL-18 expression in colon at 10 mg/kg,ip administrated for 9 days by immunohistochemistry analysis; assay type: functional, organism-based; settings: time 9.0 day
[22] = system: Mus musculus; assay: Anti-inflammatory activity in DSS-induced ulcerative colitis C57BL/6 mouse model assessed as decrease in NLRP3 protein expression in colon at 10 mg/kg,ip administrated for 9 days by Western blotting analysis; assay type: functional, organism-based; settings: time 9.0 day
[23] = system: Mus musculus; assay: Anti-inflammatory activity in DSS-induced ulcerative colitis C57BL/6 mouse model assessed as decrease in pro-IL-1beta protein expression in colon at 10 mg/kg,ip administrated for 9 days by Western blotting analysis; assay type: functional, organism-based; settings: time 9.0 day
[24] = Acute toxicity in Kunming mouse model assessed as lethargy at 2000 mg/kg,IG administration for 7 days; assay type: organism-based; settings: in vivo, po, 168 h, time 7 day
[25] = Acute toxicity in Kunming mouse model assessed as clonic convulsion at 2000 mg/kg,IG administration for 7 days; assay type: organism-based; settings: in vivo, po, 168 h, time 7 day
[26] = Acute toxicity in Kunming mouse model assessed as ruffled fur at 1000 mg/kg,IG administration for 7 days; assay type: organism-based; settings: in vivo, po, 168 h, time 7 day
[27] = Subacute toxicity in C57BL/6 mouse assessed as change in heart weight at 10 mg/kg,ip administrated for 14 days; assay type: organism-based; settings: in vivo, 336 h, time 14 day
[28] = Subacute toxicity in C57BL/6 mouse assessed as change in liver weight at 10 mg/kg,ip administrated for 14 days; assay type: organism-based; settings: in vivo, 336 h, time 14 day
[29] = Subacute toxicity in C57BL/6 mouse assessed as change in spleen weight at 10 mg/kg,ip administrated for 14 days; assay type: organism-based; settings: in vivo, 336 h, time 14 day
[30] = Subacute toxicity in C57BL/6 mouse assessed as change in spleen weight at 100 mg/kg,ip administrated for 14 days; assay type: organism-based; settings: in vivo, 336 h, time 14 day
[31] = Subacute toxicity in C57BL/6 mouse assessed as change in lung weight at 10 mg/kg,ip administrated for 14 days; assay type: organism-based; settings: in vivo, 336 h, time 14 day
[32] = Subacute toxicity in C57BL/6 mouse assessed as change in kidney weight at 100 mg/kg,ip administrated for 14 days; assay type: organism-based; settings: in vivo, 336 h, time 14 day
[33] = Subacute toxicity in C57BL/6 mouse assessed as change in colon weight at 10 mg/kg,ip administrated for 14 days; assay type: organism-based; settings: in vivo, 336 h, time 14 day
[34] = Subacute toxicity in C57BL/6 mouse assessed as heart histological changes at 100 mg/kg,ip administrated for 14 days; assay type: organism-based; settings: in vivo, 336 h, time 14 day
[35] = Subacute toxicity in C57BL/6 mouse assessed as liver histological changes at 10 mg/kg,ip administrated for 14 days; assay type: organism-based; settings: in vivo, 336 h, time 14 day
[36] = Subacute toxicity in C57BL/6 mouse assessed as lung histological changes at 10 mg/kg,ip administrated for 14 days; assay type: organism-based; settings: in vivo, 336 h, time 14 day
[37] = Subacute toxicity in C57BL/6 mouse assessed as kidney histological changes at 10 mg/kg,ip administrated for 14 days; assay type: organism-based; settings: in vivo, 336 h, time 14 day
[38] = Subacute toxicity in C57BL/6 mouse assessed as kidney histological changes at 100 mg/kg,ip administrated for 14 days; assay type: organism-based; settings: in vivo, 336 h, time 14 day

NACHT, LRR and PYD domains-containing protein 3, sequence (Q96P20 whole entry, the tested form may be a part): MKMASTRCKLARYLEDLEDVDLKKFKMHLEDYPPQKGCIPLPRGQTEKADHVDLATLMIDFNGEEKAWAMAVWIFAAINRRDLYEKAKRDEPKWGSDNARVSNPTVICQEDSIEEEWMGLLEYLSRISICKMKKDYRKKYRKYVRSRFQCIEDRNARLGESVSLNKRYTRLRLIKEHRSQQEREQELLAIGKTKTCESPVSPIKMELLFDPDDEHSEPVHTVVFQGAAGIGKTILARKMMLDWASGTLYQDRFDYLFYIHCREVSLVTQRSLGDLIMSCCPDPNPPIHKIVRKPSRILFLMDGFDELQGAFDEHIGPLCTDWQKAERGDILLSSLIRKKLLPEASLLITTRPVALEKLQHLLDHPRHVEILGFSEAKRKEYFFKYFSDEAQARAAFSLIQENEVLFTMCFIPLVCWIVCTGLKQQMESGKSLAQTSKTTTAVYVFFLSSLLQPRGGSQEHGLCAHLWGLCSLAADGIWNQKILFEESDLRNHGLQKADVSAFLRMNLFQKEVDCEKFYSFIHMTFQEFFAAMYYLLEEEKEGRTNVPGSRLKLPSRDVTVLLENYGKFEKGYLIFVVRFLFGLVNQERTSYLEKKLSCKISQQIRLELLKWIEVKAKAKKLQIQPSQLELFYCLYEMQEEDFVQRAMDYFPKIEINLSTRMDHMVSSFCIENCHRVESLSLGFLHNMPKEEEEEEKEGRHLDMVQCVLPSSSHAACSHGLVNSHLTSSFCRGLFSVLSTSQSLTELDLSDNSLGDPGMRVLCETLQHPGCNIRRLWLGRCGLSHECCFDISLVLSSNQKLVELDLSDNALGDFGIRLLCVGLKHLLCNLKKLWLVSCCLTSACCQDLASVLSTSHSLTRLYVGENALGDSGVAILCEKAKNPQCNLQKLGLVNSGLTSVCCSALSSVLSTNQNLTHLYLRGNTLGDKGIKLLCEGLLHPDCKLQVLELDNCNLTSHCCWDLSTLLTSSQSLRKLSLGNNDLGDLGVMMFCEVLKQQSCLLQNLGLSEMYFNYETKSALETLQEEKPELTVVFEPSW

CCCNS(=O)(=O)c1ccc2c(c1)CC(N(Cc1cc(Cl)ccc1OCCOC)C(=O)c1cc3ccccc3o1)C2 (racemic)
inactive: inhibition [2] | inhibition [3]
active: inhibition [4] | Activity [5] | Activity [16] | Activity [17] | Activity [18] | Activity [19] | Activity [20] | Activity [21] | Activity [22] | Activity [23]
35300 ng/g: concentration at 0.5 h [14]
Stable: Stability [8]
219 ng/mL: Cmax [7]
Active: Drug uptake [9] | Drug uptake [10] | Drug uptake [11] | Drug uptake [12] | Drug uptake [13]
2094.04 ng/g: Cp [15]
Non-Toxic: Activity [24] | Activity [25] | Activity [26] | Activity [27] | Activity [28] | Activity [29] | Activity [30] | Activity [31] | Activity [32] | Activity [33] | Activity [34] | Activity [35] | Activity [36] | Activity [37] | Activity [38]
> 30 µM: CC50 at 24 h [1]
1.5 h: half-life [6]
